Consider one compound from patent US8008319B2, “Treatment of colorectal polyps with imidazoquinoline derivatives” (Meda Pharma GmbH & Co. KG, priority 2008, dated 2011).

One assay has as its system MC-26 colon carcinoma. Particulars: mice; oral treatment; cited from earlier work.
In assay [1] the test system is p53 expression in Caco-2 cells. Briefly: p53 mRNA expression in Caco-2 cells by quantitative real-time RT-PCR. Format: cell-based. The method, then:
Imiquimod was dissolved in dimethyl sulfoxide (DMSO). Stock concentration was 10 mg/ml. From these stocks stepwise dilutions were prepared. […] The final concentration of DMSO was 0.1%.
The colorectal adenocarcinoma cell line Caco-2 was obtained from ATCC [American Type Culture Collection], Wesel, Germany. The cells were plated in 24-well plates (BD Bioscience, Heidelberg, Germany). The cells were cultured in DMEM supplemented with 10% heat-inactivated foetal bovine serum and 10% non essential amino acids in a humidified atmosphere containing 5% CO2 at 37° C. When confluent, the cells were washed and resuspended in serum-free Dulbecco's Modified Eagle Medium (DMEM) at 10^6 cells ml^−1. […]
RNA was prepared from frozen lysates using RNeasy, Qiagen (Hilden, Germany). One-tube Reverse Transcriptase-Polymerase Chain Reaction (RT-PCR) was performed using Quantitect Probe RT-PCR Kit from QIAGEN (Hilden, Germany). Expression of p53 was determined in relation to beta-actin by real time RT-PCR using SYBR Green assays on an ABI Prism 7900. […] Quantity of mRNA was calculated using […] method. For each RT-PCR the threshold cycle (CT) was determined, being defined as the cycle at which the fluorescence exceeds 10 times the standard deviation of the mean baseline emission for cycles 3 to 10. β-actin was used as a housekeeping gene to normalize mRNA levels: Ct (Parameter)−Ct (β-actin)=ΔCt (Parameter). […]
For orientation: Real-time PCR tracks product formation cycle by cycle.

The subject of the next assay is p53. Particulars: patients with Actinic Keratoses; under imiquimod therapy; cited from earlier work.

On to `CC(C)Cn1cnc2c(N)nc3ccccc3c21` [imiquimod, 1-(2-methylpropyl)-1H-imidazo[4,5-c]quinolin-4-amine], for which, in the assay on MC-26 colon carcinoma, the “development of MC-26 colon carcinoma” value is reported as “significantly inhibited the development of MC-26 colon carcinoma”. For the same compound, the “statistical significance of increase in p53 mRNA levels” value in assay [1] (10 and 100 μM imiquimod, one-way ANOVA with Dunnett's post-hoc) is “reached statistical significance”. The “p53 mRNA expression (relative to beta-actin and vehicle control)” value in assay [1] (concentrations up to 100 μM, FIG. 1) was “increases p53 mRNA expression dose dependently”. Moreover, the “gene expression for p53” value with p53 is given as “no differences in gene expression for p53 were found”.
